Source: patent US20230255953A1, “USE OF ROLUPERIDONE IN PREVENTING RELAPSE IN SCHIZOPHRENIA PATIENTS” (Minerva Neurosciences, Inc., priority 2022, published 2023)

Experiments:
Type in all cases: in vivo, human
[1] = test system: patients with negative symptoms of schizophrenia; experiment: Study #1 (MIN-101C03): Calgary Depression Scale for Schizophrenia; conditions: Week 12 DB, ITT
Excerpt: (§1) Phase 2b Study #1 (also referred to herein as “MIN-101C03”) was a Phase 2b, double-blind (“DB”), placebo-controlled, randomized, multicenter 12-week study to evaluate the efficacy, safety, and tolerability of Roluperidone in patients ≥18 years to ≤60 years with negative symptoms of schizophrenia, followed by a 24-week open-label (“OL”) extension. The primary objective of the study was to evaluate the efficacy of Roluperidone compared to placebo in improving the negative symptoms of schizophrenia as measured by the change from Baseline in the PANSS negative factor score of the PSM (“PANSS PSM”) over 12 weeks of treatment.
(§2) The study consisted of a pretreatment screening period of up to 28 days (including washout), a 12-week, DB, placebo-controlled period, and a 24-week OL period. Eligible patients (who were symptomatically stable for at least 3 months and had scores of at least 20 on the PANSS negative subscale score) were randomized in a 1:1:1 ratio to receive oral Roluperidone (a modified-release, “MR”, formulation) 32 mg QD, Roluperidone 64 mg QD, or placebo for 12 weeks. […] During the 24-week, OL treatment extension period, patients who were initially randomized to Roluperidone 32 mg or 64 mg continued on the same dose, while patients who were initially randomized to placebo crossed over to Roluperidone 32 mg or 64 mg in a 1:1 ratio.

[2] = test system: patients with negative symptoms of schizophrenia; experiment: Study #1 (MIN-101C03): rate of relapse; conditions: for Rate of relapse (%) / Rate of relapse (number of patients): DB period, MIN-101C03
Description: “Time to relapse” in the DB period is defined as the number of days from Day 1 to the date of early trial termination due to relapse. […] Treatment differences in time to relapse in the DB period were analyzed using a Cox-regression model with treatment group and Baseline PANSS total score as covariates. For the analysis of the OL period, this analysis was repeated to analyze treatment differences in time to relapse in the study. For the OL period analysis, patients who were not observed to relapse in the study were censored on the date on which they ended the study. Kaplan-Meier plots of time to relapse in the DB period, OL period, and in the study were generated.
In some embodiments, for any of the methods disclosed herein, a relapse refers to a patient who is terminated early during treatment (or a study trial) due to worsening of psychosis or an adverse event or generalized symptom in Table 1.
as §1, §2

[3] = test system: patients with negative symptoms of schizophrenia; experiment: Study #2 (MIN-101C07): safety and tolerability (TEAEs, QT); conditions: for Incidence of TEAEs: DB period
Excerpt: Study #2 (also referred to as “MIN101C07”) was a Phase 3, randomized, DB, placebo-controlled, parallel-group 12-week study to evaluate the efficacy and safety of Roluperidone in patients ≥18 years to ≤55 years with negative symptoms of schizophrenia, followed by a 40-week OL extension. The study consisted of a pretreatment screening period of up to 28 days (including an antipsychotic medication washout period), a 12-week, DB, placebo-controlled period, and a 40-week OL period. Eligible patients (with moderate to severe negative symptoms of schizophrenia and stable positive symptoms but without severe symptoms of suspiciousness, agitation, hostility, uncooperativeness, or poor impulse control) were randomized 1:1:1 to receive Roluperidone 32 mg QD, Roluperidone 64 mg QD (GR01/B formulation, see U.S. Pat. No. 11,464,744), or placebo, orally, for 12 weeks. […] During the 40-week OL treatment extension, patients who were initially randomized to Roluperidone 32 mg or 64 mg continued treatment with the same dose, while patients who were initially randomized to placebo crossed over to Roluperidone 32 mg or 64 mg in a 1:1 ratio.
The incidence of TEAEs was slightly higher in the Roluperidone groups than in the placebo group during the DB period (42% in the 32 mg Roluperidone group, 37% in the 64 mg Roluperidone group, and 33% in the placebo group). The majority of TEAEs reported were in the System Organ Class (SOC) psychiatric disorders. The most commonly reported TEAEs were insomnia, schizophrenia, anxiety, agitation, and headache. […] In total, 6 patients met stopping criteria due to QT prolongations, and 4 of these 6 patients were discontinued from the study due to such prolongations. The remaining 2 patients were discontinued for other reasons prior to confirming their QT prolongations.

[4] = test system: patients with negative symptoms of schizophrenia; experiment: Study #1 (MIN-101C03): Brief Negative Symptoms Scale (BNSS); conditions: Week 12 DB, ITT
Excerpt: As used herein, “BNSS” is the Brief Negative Symptom Scale. “BNSS” is 13-item instrument designed to measure negative symptoms, specifically: blunted affect, alogia, asociality, anhedonia, and avolition (Kirkpatrick, et al., “The Brief Negative Symptom Scale: Psychometric Properties,” Schizophr. Bull., 2011, 37(2), 300-5.).
as §1, §2

In the case of “1H-Isoindol-1-one,2-[ [1-[2-(4-fluorophenyl)-2-oxoethyl]-4-piperidinyl]methyl]-2,3-dihydro-, hydrochloride, hydrate (1:1:2) [Roluperidone]”, the “Change from Baseline LS Mean: Calgary Depression Scale for Schizophrenia” value ([1]; 32 mg QD) is reported as −0.37, the “Effect Size vs Placebo: Calgary Depression Scale for Schizophrenia” value ([1]; 32 mg QD) is reported as 0.25 and the “Change from Baseline LS Mean: Calgary Depression Scale for Schizophrenia” value ([1]; 64 mg QD) is reported as −0.71. The “Effect Size vs Placebo: Calgary Depression Scale for Schizophrenia” value ([1]; 64 mg QD) was 0.46, the “Rate of relapse (%)” value ([2]; 32 mg) was 7% and the “Rate of relapse (number of patients)” value ([2]; 32 mg) was 5. The “Rate of relapse (%)” value ([2]; 64 mg) was 9%, the “Rate of relapse (number of patients)” value ([2]; 64 mg) was 7 and the “Relapse by study phase” value ([2]; Study #1 (n = 244), all subjects, Double-blind (12-weeks)) was 11.5%. For the same substance, the “Relapse overall (discontinued because of positive symptoms worsening)” value ([2]; Study #1 (n = 244), Overall (over 36 weeks)) was 15.2%, the “Relapse by study phase” value ([2]; Study #1, Open-label (over 24 weeks)) was 6% and the “Change in safety laboratory parameters, including prolactin” value [3] was “no significant change”. For the same substance, the “Change in vital signs, including weight and waist circumference” value [3] was “no significant change”, the “Incidence of TEAEs” value ([3]; 32 mg) was 42% and the “Incidence of TEAEs” value ([3]; 64 mg) was 37%. The Tolerability ([3]; 32 and 64 mg) was “generally well tolerated”, the “Patients who met stopping criteria due to QT prolongations” value ([3]; in total) was 6 patients and the QT prolongation ([3]; majority of clinically significant prolongations with 64 mg) was “Dose-related QT prolongation was observed”. The “Patients discontinued from the study due to QT prolongations” value ([3]; of the 6 meeting stopping criteria) was 4 patients, the “Change from Baseline LS Mean: Brief Negative Symptoms Scale Total Score” value ([4]; 32 mg QD) was −5.44 and the “Effect Size vs Placebo: Brief Negative Symptoms Scale Total Score” value ([4]; 32 mg QD) was 0.33. For the same substance, the “Change from Baseline LS Mean: Brief Negative Symptoms Scale Total Score” value ([4]; 64 mg QD) was −6.94 and the “Effect Size vs Placebo: Brief Negative Symptoms Scale Total Score” value ([4]; 64 mg QD) was 0.56.
